# Laboratory results taken from patent US20240368139A1, “NOVEL MODULATORS OF EHMT1 AND EHMT2 AND THERAPEUTIC USE THEREOF” (Tango Therapeutics, Inc., priority 2021, published 2024).
# Where two headings read alike, the source gives them in different places.
# What was measured:
# human EHMT1 982-1266 = target: T1, human EHMT1 982-1266 (Homo sapiens, UniProt Q9H9B1); test: EHMT1 enzyme assay on histone peptide substrate (3H-SAM SPA); details: EHMT1 IC50, recombinant human EHMT1 982-1266, histone peptide substrate
# T1 sequence (Q9H9B1 982-1266): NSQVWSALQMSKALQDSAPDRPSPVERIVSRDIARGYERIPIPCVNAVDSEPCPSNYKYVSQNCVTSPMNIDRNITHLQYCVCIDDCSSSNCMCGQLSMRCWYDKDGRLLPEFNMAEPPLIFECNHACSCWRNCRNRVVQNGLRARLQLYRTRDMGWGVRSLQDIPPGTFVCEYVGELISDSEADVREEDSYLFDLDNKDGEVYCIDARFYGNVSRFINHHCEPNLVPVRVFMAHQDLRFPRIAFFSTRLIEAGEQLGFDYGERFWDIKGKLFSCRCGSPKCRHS
# human EHMT2 913-1193 = target: T2, human EHMT2 913-1193 (Homo sapiens, UniProt Q96KQ7); test: EHMT2 enzyme assay on histone peptide substrate (3H-SAM SPA); details: EHMT2 IC50, recombinant human EHMT2 913-1193, histone peptide substrate
# T2 sequence (Q96KQ7 913-1193): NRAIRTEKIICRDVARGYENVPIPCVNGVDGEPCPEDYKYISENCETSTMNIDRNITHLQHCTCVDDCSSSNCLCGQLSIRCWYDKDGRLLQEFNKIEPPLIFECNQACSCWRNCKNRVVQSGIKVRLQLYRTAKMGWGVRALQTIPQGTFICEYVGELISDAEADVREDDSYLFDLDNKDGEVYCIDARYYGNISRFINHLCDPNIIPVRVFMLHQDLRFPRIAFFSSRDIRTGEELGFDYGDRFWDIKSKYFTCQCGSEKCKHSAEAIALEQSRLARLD
# H3K9me2 in HCT116 cells = test: HCT116 H3K9me2 in-cell western assay; type: cell-based; details: Homo sapiens, read-out: H3K9me2 ICW IC50
# In short: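 HCT116 cells (2,000/well) were treated for 72 h at 37° C, 5% CO2, with ten two-fold dilutions from 10 μM in duplicate. After PFA fixation, cells were stained overnight at 4° C with anti-H3K9me2, then with an 800 CW secondary plus DRAQ5.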
# hERG potassium channels = hERG potassium channels (Homo sapiens, UniProt Q12809); test: In vitro hERG assay (SyncroPatch whole-cell recording); details: room temperature
# hERG potassium channels, sequence (Q12809 whole entry): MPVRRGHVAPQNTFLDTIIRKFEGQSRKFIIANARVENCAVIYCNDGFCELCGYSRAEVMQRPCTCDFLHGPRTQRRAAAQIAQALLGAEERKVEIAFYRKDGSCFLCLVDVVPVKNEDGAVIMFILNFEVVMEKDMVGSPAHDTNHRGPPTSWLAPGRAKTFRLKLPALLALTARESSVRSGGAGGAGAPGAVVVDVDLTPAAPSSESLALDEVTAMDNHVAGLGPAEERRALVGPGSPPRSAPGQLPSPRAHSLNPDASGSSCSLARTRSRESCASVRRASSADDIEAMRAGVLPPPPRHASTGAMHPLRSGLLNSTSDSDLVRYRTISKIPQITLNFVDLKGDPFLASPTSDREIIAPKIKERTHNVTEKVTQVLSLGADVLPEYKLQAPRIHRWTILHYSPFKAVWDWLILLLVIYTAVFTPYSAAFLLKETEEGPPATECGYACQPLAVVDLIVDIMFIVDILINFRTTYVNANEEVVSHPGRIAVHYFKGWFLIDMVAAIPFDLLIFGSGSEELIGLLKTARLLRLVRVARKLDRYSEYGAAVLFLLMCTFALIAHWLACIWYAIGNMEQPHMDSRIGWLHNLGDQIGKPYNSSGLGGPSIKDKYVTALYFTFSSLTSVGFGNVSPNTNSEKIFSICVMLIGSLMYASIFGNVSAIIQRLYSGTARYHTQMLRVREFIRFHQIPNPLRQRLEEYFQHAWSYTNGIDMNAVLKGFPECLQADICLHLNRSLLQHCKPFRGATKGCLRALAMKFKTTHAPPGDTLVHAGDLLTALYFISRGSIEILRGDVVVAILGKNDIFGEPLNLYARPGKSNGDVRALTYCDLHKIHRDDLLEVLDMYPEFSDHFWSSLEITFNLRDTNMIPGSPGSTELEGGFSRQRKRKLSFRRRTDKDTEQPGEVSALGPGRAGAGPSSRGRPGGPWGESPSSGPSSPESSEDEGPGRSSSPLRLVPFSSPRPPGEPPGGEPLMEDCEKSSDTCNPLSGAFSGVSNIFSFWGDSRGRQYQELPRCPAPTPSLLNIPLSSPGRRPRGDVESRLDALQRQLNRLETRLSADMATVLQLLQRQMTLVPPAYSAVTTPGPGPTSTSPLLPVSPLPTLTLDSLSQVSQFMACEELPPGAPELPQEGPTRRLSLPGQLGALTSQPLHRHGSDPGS
# Protocol: CHO cells stably expressing hERG potassium channels from Sophion Biosciences were used for this test. The cells were cultured in a humidified and air-controlled (5% CO2) incubator at 37° C.
# The CHO hERG Culture Medium consisted of 500 mL Ham's F12 (Invitrogen), 50 mL FBS (HyClone), 1 mL G418/Geneticin (Invitrogen, and 1 mL Hygromycin B (Invitrogen)
# The CHO cells which were at least two days after plating and more than 75% confluent would be used for experiments. Before testing, cells were harvested using TrypLE and resuspended in the physiological solution at the room temperature.
# For the electrophysiological recordings the following solutions were used (Table 5). The physiological solution and external solution were prepared at least one month. The intracellular solution was prepared in batches aliquoted, and stored at 4° C. until used.
# Test compounds were dissolved in 100% DMSO to obtain stock solutions for different test concentrations. Then the stock solutions were further diluted into external solution to achieve final concentrations for testing. Visual check for precipitation was conducted before testing. Final DMSO concentration in external solution was not more than 0.30% for the test compounds.
# Voltage command protocol: From this holding potential of −80 mV, the voltage was first stepped to −50 mV for 80 ms for leak subtraction, and then stepped to +20 mV for 4800 ms to open hERG channels. After that, the voltage was stepped back down to −50 mV for 5000 ms, causing a “rebound” or tail current, which was measured and collected for data analysis. Finally, the voltage was stepped back to the holding potential (−80 mV, 1000 ms). This voltage command protocol was repeated every 20000 msec. This command protocol was performed continuously during the test (vehicle control and test compound).
# hERG SyncroPatch assay was conducted at room temperature. The Setup, Prime Chip, Catch and Seal Cells, Amplifier Settings, Voltage and Application Protocols were established with Biomek Software (Nanion). One addition of 40 μL of the vehicle was applied, followed by 300s for a baseline period. Then the doses of the compounds were added with 40 μL. The exposure of test compound at each concentration was no less than 300s. […] Five concentrations (0.30 μM, 1.00 μM, 3.00 μM, 10.00 μM and 30.00 μM) were tested for each compound. Minimum 2 replicates per concentration were obtained.
# Within each well recording, percent of control values were calculated for each test compound concentration current response based on peak current in presence of reference control (current response/peak current)×100%. The Dose-Response curves were fit to the standard Hill equation as shown below:
# Where X is the logarithm of concentration, Ipost cpd/Ipre cpa is the normalized peak current amplitude, Top is 1 and Bottom is equal to 0.
# Curve-fitting and IC50 calculations were performed by GraphPad Prism 5.0.
# [1] = HCT-116, 72 h, HCT116 cells, 72 hours incubation
# [2] = hERG IC50, CHO cells stably expressing hERG
Compound,IC50 (human EHMT1 982-1266) [nM],IC50 (human EHMT2 913-1193) [nM],IC50 (H3K9me2 in HCT116 cells; [1]) [nM],"IC50 (hERG potassium channels; hERG IC50, SyncroPatch) [nM]",IC50 (hERG potassium channels; [2]) [nM],"IC50 (H3K9me2 in HCT116 cells; HCT-116, 72 h) [nM]","IC50 (H3K9me2 in HCT116 cells; HCT-116, HCT116 cells, 72 hours incubation) [nM]"
"CNc1cc(C)nc(Nc2cc(OCCCN3CCCC3)c3c(c2)OCCO3)n1 [Compound 122, N4,6-dimethyl-N2-[5-(3-pyrrolidin-1-ylpropoxy)-2,3-dihydro-1,4-benzodioxin-7-yl]pyrimidine-2,4-diamine]",100 to 500,100 to 500,100 to 500,2000 to 5000,,,
"CNc1cc(C)nc(Nc2cc3c(c(C4=CCNCCC4)c2)OCCO3)n1 [Compound 130, N4,6-dimethyl-N2-[5-(2,3,4,7-tetrahydro-1H-azepin-5-yl)-2,3-dihydro-1,4-benzodioxin-7-yl]pyrimidine-2,4-diamine]",< 100,< 100,< 100,2000 to 5000,,,
"CNc1cc(C)nc(Nc2cc3c(c(C4=CCNCCC4)c2F)OCC3)n1 [Compound 291, N2-[6-fluoro-7-(2,3,4,7-tetrahydro-1H-azepin-5-yl)-2,3-dihydrobenzofuran-5-yl]-N4,6-dimethyl-pyrimidine-2,4-diamine]",,,< 100,> 10000,> 10000,,
CNc1cc(C)nc(Nc2cc3c(c(C4C[C@H]5CNC[C@H]5C4)c2)OCCC3)n1 (stereo partly shown) [Compound 340],< 100,100 to 500,100 to 500,,,,
CNc1cc(C)nc(Nc2cc3c(c([C@H]4C[C@H]5CNC[C@H]5C4)c2)OCO3)n1 [Compound 342],100 to 500,500 to 2000,500 to 2000,,,,
CNc1cc(C)nc(Nc2cc3c(c(C4CCCNCC4)c2)OCO3)n1 (stereo not shown) [Compound 343],100 to 500,500 to 2000,100 to 500,,,,
CNc1cc(C)nc(Nc2cc3c(c(C4=C[C@H]5CNC[C@H]5C4)c2)OCCC3)n1 [Compound 344],100 to 500,500 to 2000,100 to 500,,,,
CNc1cc(C)nc(Nc2cc3c(c(C4=CCNCC4)c2)OCCC3)n1 [Compound 345],100 to 500,500 to 2000,100 to 500,,,,
CNc1cc(C)nc(Nc2cc3c(c(C4=CCC(N)CC4)c2)OCCC3)n1 (stereo not shown) [Compound 346],100 to 500,> 2000,100 to 500,,,,
CNc1cc(C)nc(Nc2cc3c(c(C4=C[C@H]5CNC[C@H]5C4)c2)OCO3)n1 [Compound 347],100 to 500,500 to 2000,100 to 500,,,,
"CNc1cc(C)nc(Nc2cc3c(c(N4C[C@H]5CNC[C@H]5C4)c2F)OCC3)n1 [Compound 351, N2-[6-fluoro-7-[rac-(3aS,6aR)-2,3,3a,4,6,6a-hexahydro-1H-pyrrolo[3,4-c]pyrrol-5-yl]-2,3-dihydrobenzofuran-5-yl]-N4,6-dimethyl-pyrimidine-2,4-diamine]",< 100,100 to 500,100 to 500,,,,
"CNc1cc(C)nc(Nc2cc3c(c(C4=CCNCCC4)c2C)OCCC3)n1 [Compound 353, N4,6-dimethyl-N2-[7-methyl-8-(2,3,4,7-tetrahydro-1H-azepin-5-yl)chroman-6-yl]pyrimidine-2,4-diamine]",< 100,< 100,< 100,,,,
CNc1cc(C)nc(Nc2cc3c(c(C4=CCNCCC4)c2C)OCO3)n1 [Compound 363],< 100,100 to 500,< 100,,,,
"CNc1cc(C)nc(Nc2cc3c(c(C4C[C@H]5CNC[C@H]5C4)c2F)OCC3)n1 (stereo partly shown) [Compound 437, N2-[7-(1,2,3,3a,4,5,6,6a-octahydrocyclopenta[c]pyrrol-5-yl)-6-fluoro-2,3-dihydrobenzofuran-5-yl]-N4,6-dimethyl-pyrimidine-2,4-diamine]",500 to 2000,500 to 2000,100 to 500,,,,
"CNc1cc(C)nc(Nc2ccc(OC)c(C3=CCN(C)CCC3)c2)n1 [Reference Compound A, reference compound]",< 100,,,5000 to 10000,5000 to 10000,< 100,
"CNc1cc(C)nc(Nc2ccc(OC)c(C3=CCNCCC3)c2)n1 [Reference Compound B, reference compound]",,< 100,,5000 to 10000,5000 to 10000,,< 100
